pIC50: −log10 of the molar value. Read-outs that look alike come from different tables or passages of the source.
Legend:
human A2B receptor [1] = molecular target: T1, human A2B receptor (Homo sapiens (Human), UniProt P29275); experiment: cAMP assay (b), HEK293 cells expressing recombinant human A2B receptor; format: cell-based; details: reference agonist at EC80, read-out: cAMP pIC50 (converted)
Experimental: (§1) Two assays have been employed, one using HEK293 with A2B receptors endogenously expressed (named cAMP assay (a) in the following) and a second one using HEK293 cells impressing recombinant human A2B receptors (named cAMP assay (b) in the following)
Dose response curves were performed in parallel with the reference compounds. 12 μl of cells were mixed with 6 μl of the test compound at increasing concentrations and then incubated 10 min. Thereafter 6 μl of the reference agonist was added at a final concentration corresponding to the historical EC80. The plates were then incubated for 30 min at room temperature. After addition of the lysis buffer and 1 hour incubation, cAMP concentrations were estimated, according to the manufacturer specification, with the HTRF kit.

human A2A receptor = human A2A receptor (Homo sapiens (Human), UniProt P29274); experiment: Radioligand binding competition assay, [3H]-NECA, membranes from HEK293 cells transfected with human A2A receptor; details: radioligand binding
Experimental: (§2) For all four adenosine receptors (A1, A2A, A2B and A3) filtration binding assay was performed. Radioligand binding competition assay was done in duplicates in the wells of a 96-well plate (Master Block, Greiner, 786201) containing binding buffer, receptor membrane extracts, a fixed concentration of tracer and test compound at increasing concentrations. In order to eliminate effect of buffer components, binding buffer was the same for all four receptors and contained: 50 mM Tris-HCl pH 7.4, 5 mM MgCl2, 1 mM EDTA, 150 mM NaCl, 0.1% Na-azide, and 5 U/ml adenosine-deaminase. Nonspecific binding was determined by co-incubation with 200-fold excess of cold competitor. In all radioligand binding experiments, the samples were incubated in a final volume of 0.1 ml for 60 minutes at 25° C. and then filtered over Unifilter plates (Perkin Elmer) pre-treated for 2 hours to limit tracer non-specific binding. Filters were washed five times with 0.5 ml of ice-cold washing buffer (50 mM Tris-HCl pH 7.4, 5 mM MgCl2, 1 mM EDTA) and 50 μl of Microscint 20 (Perkin Elmer) were added to each filter. The plates are incubated 15 min at room temperature on an orbital shaker and then counted with a TopCount™ for 1 min/well.
For A2A receptor the assay was performed with [^3H]-NECA and membranes from HEK293 cells transfected with human A2A receptor (Euroscreen FAST-002B).

human A2B receptor [2] = molecular target: T1, human A2B receptor; experiment: Radioligand binding competition assay, [3H]-DPCPX, membranes from HEK293 cells transfected with human A2B receptor
Experimental: as §2
For A2B, the assay was carried with [^3H]-DPCPX and membranes prepared from HEK293 cells transfected with human A2B receptor (Euroscreen FAST-003B).

human A1 receptor = human A1 receptor (Homo sapiens (Human), UniProt P30542); experiment: Radioligand binding competition assay, [3H]-DPCPX, membranes from CHO-K1 cells transfected with human A1 receptor
Experimental: as §2
For A1 receptor the assay was performed with [^3H]-DPCPX and membranes from CHO-K1 cells transfected with human A1 receptor (Euroscreen FAST-00B).

human A3 receptor = human A3 receptor (Homo sapiens (Human), UniProt P0DMS8); experiment: Radioligand binding competition assay, [125I]-MECA, membranes from CHO-K1 cells transfected with human A3 receptor
Experimental: as §2
For A3, the assay was carried out with [^125I]-MECA and membranes from CHO-K1 cells transfected with human A3 receptor (Euroscreen FAST-004B).

[3] = molecular target: A2B receptors endogenously expressed in HEK293 cells (Homo sapiens (Human), UniProt P29275); experiment: cAMP assay (a), HEK293 cells with A2B receptors endogenously expressed; format: cell-based; details: stimulated with 5 μM NECA; for IC50: read-out: cAMP pIC50 (converted)
Experimental: as §1
Real-time cAMP-assays in live cells were performed in HEK293 cells stably expressing the EPAC-sensor (I. Vedel, et al., 2015, J. Biomol. Screen. 20, 849-857).
In order to test for cAMP inhibition by preferred compounds of formula I and antagonists, respectively, from this invention, endogenous A2A and A2B expression in above cell lines was exploited. To run the assay, cells were incubated in 80 μl assay buffer for 15 minutes at room temperature. The assay buffer was composed of Hanks Balanced Salt Solution (Gibco) with 20 mM HEPES, pH 7.4 and […] adenosine-deaminase. All cAMP assays were run at room temperature using a PHERAstar FSX plate reader. The FRET donor (mCerulean) was excited at 430 nm. Fluorescence emission was measured at 480 nm and 530 nm for 65 minutes (cycle time 1.45 min). Prior to stimulation fluorescence was measured for 10 min (baseline). Subsequently cells were stimulated with 5 μM NECA (5′-(N-Ethylcarboxamido)adenosine; Tocris, Cat.-No:35920-39-9). Sharply 10.15 min after stimulation the compounds were added at increasing concentrations (between 0 and 200 μM) and fluorescence was recorded for 40 min. Each compound concentration was measured in duplicates.

Sequence of human A2A receptor (P29274 whole entry): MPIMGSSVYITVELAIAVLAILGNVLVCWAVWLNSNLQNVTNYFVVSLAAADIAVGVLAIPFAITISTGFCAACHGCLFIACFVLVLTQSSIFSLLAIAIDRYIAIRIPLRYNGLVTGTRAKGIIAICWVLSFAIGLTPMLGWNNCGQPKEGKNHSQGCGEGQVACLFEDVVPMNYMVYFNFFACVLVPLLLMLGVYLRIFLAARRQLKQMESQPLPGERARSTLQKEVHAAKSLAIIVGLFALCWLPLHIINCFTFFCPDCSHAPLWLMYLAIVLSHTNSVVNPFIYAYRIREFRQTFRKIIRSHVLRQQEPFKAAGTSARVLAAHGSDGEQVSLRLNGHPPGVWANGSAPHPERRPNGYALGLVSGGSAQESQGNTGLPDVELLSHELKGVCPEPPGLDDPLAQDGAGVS
T1 sequence (P29275 whole entry): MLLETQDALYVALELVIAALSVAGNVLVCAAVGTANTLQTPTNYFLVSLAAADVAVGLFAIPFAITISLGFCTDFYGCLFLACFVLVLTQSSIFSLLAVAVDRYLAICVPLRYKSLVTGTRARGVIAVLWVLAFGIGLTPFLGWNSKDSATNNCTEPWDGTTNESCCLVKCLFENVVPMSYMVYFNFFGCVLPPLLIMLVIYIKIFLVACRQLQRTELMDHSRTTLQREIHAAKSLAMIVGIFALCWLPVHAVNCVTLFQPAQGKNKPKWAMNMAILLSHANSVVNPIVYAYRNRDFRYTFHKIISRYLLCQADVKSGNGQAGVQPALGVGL
Sequence of A2B receptors endogenously expressed in HEK293 cells (P29275 whole entry): as above
Sequence of human A1 receptor (P30542 whole entry): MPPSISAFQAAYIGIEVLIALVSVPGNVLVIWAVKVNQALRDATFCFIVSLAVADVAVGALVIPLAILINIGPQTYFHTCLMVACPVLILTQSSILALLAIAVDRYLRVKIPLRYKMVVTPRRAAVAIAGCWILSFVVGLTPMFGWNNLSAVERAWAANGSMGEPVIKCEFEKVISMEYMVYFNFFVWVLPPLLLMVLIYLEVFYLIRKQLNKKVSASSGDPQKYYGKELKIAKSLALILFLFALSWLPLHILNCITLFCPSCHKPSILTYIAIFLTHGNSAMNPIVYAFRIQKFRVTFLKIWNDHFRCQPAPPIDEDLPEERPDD
Sequence of human A3 receptor (P0DMS8 whole entry): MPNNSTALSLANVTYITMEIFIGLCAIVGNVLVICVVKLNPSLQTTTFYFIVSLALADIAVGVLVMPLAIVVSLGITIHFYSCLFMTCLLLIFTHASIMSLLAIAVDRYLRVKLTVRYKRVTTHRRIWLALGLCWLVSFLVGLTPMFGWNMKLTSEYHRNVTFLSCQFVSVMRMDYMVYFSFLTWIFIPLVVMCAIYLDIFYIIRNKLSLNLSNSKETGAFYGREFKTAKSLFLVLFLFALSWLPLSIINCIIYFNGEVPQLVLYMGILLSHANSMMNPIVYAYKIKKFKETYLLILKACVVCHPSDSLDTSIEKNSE

SMILES	IC50 (human A2B receptor [1])	Human A2A Receptor pKi (human A2A receptor)	Human A2B Receptor pKi (human A2B receptor [2])	pIC50 (human A2B receptor [2])	further results
Cc1cnc(-c2nc(Nc3cccc(F)c3)nnc2-c2ccncc2F)o1 [Example 17, N-(3-fluorophenyl)-6-(3-fluoropyridin-4-yl)-5-(5-methyloxazol-2-yl)-1,2,4-triazin-3-amine]	324 nM	5.8	7.17		
Fc1ccccc1-c1nc(Nc2nc(Cl)cs2)nnc1-c1ccnc(C(F)(F)F)c1 [Example 10, 4-chloro-N-(5-(2-fluorophenyl)-6-(2-(trifluoromethyl)pyridin-4-yl)-1,2,4-triazin-3-yl)thiazol-2-amine]		<4.70	6.02	5.97	
OCc1ncc(Nc2nnc(-c3ccncc3F)c(-c3ccccc3F)n2)cn1 [Example 39, (5-{[5-(2-fluorophenyl)-6-(3-fluoropyridin-4-yl)-1,2,4-triazin-3-yl]amino}pyrimidin-2-yl)methanol]	41.7 nM	5.66	7.76		Human A1 Receptor pKi (human A1 receptor): 6.19; Human A3 Receptor pKi (human A3 receptor): 6.52
CCc1n[nH]c(Nc2nnc(-c3ccncc3F)c(-c3ccccc3F)n2)n1 [Example 18, N-(3-ethyl-1H-1,2,4-triazol-5-yl)-5-(2-fluorophenyl)-6-(3-fluoro-4-pyridyl)-1,2,4-triazin-3-amine]			6.68		Human A1 Receptor pKi (human A1 receptor): 5.00
Fc1cnccc1-c1nnc(Nc2ccc(C3CC3)nc2)nc1-c1ccccc1F [Example 44, N-(6-cyclopropylpyridin-3-yl)-5-(2-fluorophenyl)-6-(3-fluoropyridin-4-yl)-1,2,4-triazin-3-amine]		6.00	7.58		
CNC(=O)Nc1nnc(-c2ccncc2F)c(-c2cccnc2)n1 [Example 7, 1-(6-(3-fluoropyridin-4-yl)-5-(pyridin-3-yl)-1,2,4-triazin-3-yl)-3-methylurea]		<4.70	5.25	5.20	pIC50 [3]: 5.16; IC50 [3]: 6920 nM
CC(C)(C)c1n[nH]c(Nc2nnc(-c3ccncc3F)c(-c3ccccc3F)n2)n1 [Example 46, N-(3-tert-butyl-1H-1,2,4-triazol-5-yl)-5-(2-fluorophenyl)-6-(3-fluoropyridin-4-yl)-1,2,4-triazin-3-amine]			7.01		
OCc1ccc(Nc2nnc(-c3ccncc3F)c(-c3ccccc3F)n2)cc1F [Example 37, (2-fluoro-4-{[5-(2-fluorophenyl)-6-(3-fluoropyridin-4-yl)-1,2,4-triazin-3-yl]amino}phenyl)methanol]		6.1	7.84		
Cc1nnc(Nc2nnc(-c3ccncc3F)c(-c3cccnc3)n2)s1 [Example 6, N-(6-(3-fluoropyridin-4-yl)-5-(pyridin-3-yl)-1,2,4-triazin-3-yl)-5-methyl-1,3,4-thiadiazol-2-amine]		<4.70	5.37	5.32	pIC50 [3]: 5.40; IC50 [3]: 3980 nM
COc1ccc(NC(=O)Nc2nnc(-c3ccncc3F)c(-c3ccccc3F)n2)cc1 [Example 29, 1-[5-(2-fluorophenyl)-6-(3-fluoro-4-pyridyl)-1,2,4-triazin-3-yl]-3-(4-methoxyphenyl)urea]			6.94		
Fc1cnccc1-c1nnc(Nc2ccc(OCC(F)F)nc2)nc1-c1ccccc1F [Example 36, N-[6-(2,2-difluoroethoxy)pyridin-3-yl]-5-(2-fluorophenyl)-6-(3-fluoropyridin-4-yl)-1,2,4-triazin-3-amine]		6.56	7.42		
Fc1cnccc1-c1nnc(Nc2ccc(C(F)(F)F)nc2)nc1-c1ccccc1F [Example 24, 5-(2-fluorophenyl)-6-(3-fluoro-4-pyridyl)-N-[6-(trifluoromethyl)-3-pyridyl]-1,2,4-triazin-3-amine]	107 nM		7.33		Human A1 Receptor pKi (human A1 receptor): 5.58
CC(O)c1ccc(Nc2nnc(-c3ccncc3F)c(-c3ccccc3F)n2)cn1 (stereo not shown) [Example 40, 1-(5-{[5-(2-fluorophenyl)-6-(3-fluoropyridin-4-yl)-1,2,4-triazin-3-yl]amino}pyridin-2-yl)ethan-1-ol]		6.25	7.89		
Cc1nsc(Nc2nnc(-c3ccncc3F)c(-c3ccccc3F)n2)n1 [Example 13, N-(5-(2-fluorophenyl)-6-(3-fluoropyridin-4-yl)-1,2,4-triazin-3-yl)-3-methyl-1,2,4-thiadiazol-5-amine]		<4.70	5.98	5.93	
Fc1cnccc1-c1nnc(Nc2nc(C3CC3)n[nH]2)nc1-c1ccccc1F [Example 31, N-(3-cyclopropyl-1H-1,2,4-triazol-5-yl)-5-(2-fluorophenyl)-6-(3-fluoro-4-pyridyl)-1,2,4-triazin-3-amine]	275 nM		7.27		Human A1 Receptor pKi (human A1 receptor): 5.00
Cc1ccc(Nc2nnc(-c3ccncc3F)c(-c3ccccc3F)n2)cn1 [Example 21, 5-(2-fluorophenyl)-6-(3-fluoro-4-pyridyl)-N-(6-methyl-3-pyridyl)-1,2,4-triazin-3-amine]	66.1 nM	6	7.81		
COc1ccc(Nc2nnc(-c3ccncc3F)c(-c3ccccc3F)n2)cn1 [Example 23, 5-(2-fluorophenyl)-6-(3-fluoro-4-pyridyl)-N-(6-methoxy-3-pyridyl)-1,2,4-triazin-3-amine]	105 nM	6.57	7.43		
Cc1nsc(Nc2nnc(-c3ccncc3F)c(-c3cccnc3)n2)n1 [Example 5, N-(6-(3-fluoropyridin-4-yl)-5-(pyridin-3-yl)-1,2,4-triazin-3-yl)-3-methyl-1,2,4-thiadiazol-5-amine]		<4.70	5.38	5.33	
Fc1cnccc1-c1nnc(Nc2nccs2)nc1-c1cccnc1 [Example 3, N-(6-(3-fluoropyridin-4-yl)-5-(pyridin-3-yl)-1,2,4-triazin-3-yl)thiazol-2-amine]		<4.70	5.95	5.90	pIC50 [3]: 5.70; IC50 [3]: 2000 nM
Fc1cccc(Nc2nnc(-c3ccncc3F)c(-c3ccccc3F)n2)c1 [Example 12, 5-(2-fluorophenyl)-N-(3-fluorophenyl)-6-(3-fluoropyridin-4-yl)-1,2,4-triazin-3-amine]		4.49	6.42	6.38	pIC50 (human A2A receptor): 4.49
O=C(Nc1nnc(-c2ccncc2F)c(-c2ccccc2F)n1)NC1CC1 [Example 35, 1-cyclopropyl-3-[5-(2-fluorophenyl)-6-(3-fluoro-4-pyridyl)-1,2,4-triazin-3-yl]urea]			6.55		
OCc1ccc(Nc2nnc(-c3ccncc3F)c(-c3ccccc3F)n2)cn1 [Example 22, [5-[[5-(2-fluorophenyl)-6-(3-fluoro-4-pyridyl)-1,2,4-triazin-3-yl]amino]-2-pyridyl]methanol]	29.5 nM	4.7	7.95		

Reference: US12391670B2, “Functionalized aminotriazines” (LEADXPRO AG, priority 2018, dated 2025)
